Values of other authors, collected in patent publication US20050158845A1 (priority 2001, published 2005).

System: human hepatocyte and neuroblastoma cells
Details: cited from earlier work

Row | Compound | effects on hepatocyte and neuroblastoma cell metabolism
1 | CCOP(=S)(OCC)Oc1ccc([N+](=O)[O-])cc1 [parathion] | opposite effects
2 | CCOP(=O)(OCC)Oc1ccc([N+](=O)[O-])cc1 [paraoxon] | opposite effects
